Measured values reported in ChEMBL document CHEMBL1201862, “PubChem BioAssay data set” (2004).
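Method: 48-hour compound exposure of cells in 96-well plates, five concentrations, linear interpolation of endpoints. Here, GI50 denotes the concentration required for 50% inhibition of growth.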 The source made the active and inactive calls. No stated cut-off is given here; in the data, active = GI50 up to about 1.1 µM and inactive = higher.

What was measured:
Assay in all cases: growth of human tumour cells (NCI), 48 h
IGROV-1 = tested on: IGROV-1
A549 = tested on: A549
MOLT-4 = tested on: MOLT-4
HCC 2998 = tested on: HCC 2998
CAKI-1 = tested on: CAKI-1
SK-MEL-5 = tested on: SK-MEL-5
SF-268 = tested on: SF-268
EKVX = tested on: EKVX
KM12 = tested on: KM12
PC-3 = tested on: PC-3
OVCAR-5 = tested on: OVCAR-5
NCI-H23 = tested on: NCI-H23
HCT-116 = tested on: HCT-116
K562 = tested on: K562
HL-60 = tested on: HL-60
SF-295 = tested on: SF-295
CCRF-CEM = tested on: CCRF-CEM
A498 = tested on: A498
SNB-75 = tested on: SNB-75

Measured: GI50

CCOC(=O)CCC(C(=O)OCC)n1nc2ccc(Nc3c(C)[n+]([O-])c4cc(F)c(OCC)cc4[n+]3[O-])cc2n1 (stereo unspecified)
inactive: IGROV-1 78.5 µM | A549 75.2 µM | MOLT-4 > 100 µM | HCC 2998 35 µM | CAKI-1 > 100 µM | SK-MEL-5 82.8 µM | SF-268 14 µM | EKVX 28.5 µM | KM12 > 100 µM | PC-3 37.2 µM | OVCAR-5 > 100 µM | NCI-H23 32.9 µM | HCT-116 50.8 µM | K562 > 100 µM | HL-60 > 100 µM | SF-295 36.1 µM | CCRF-CEM > 100 µM | A498 52.4 µM | SNB-75 15.8 µM

CC(=O)ON(C(C)=O)C1C(COC(c2ccccc2)(c2ccccc2)c2ccccc2)OC2OC3(CCCC3)OC21 (stereo unspecified)
inactive: IGROV-1 > 100 µM | A549 4.59 µM | MOLT-4 3.15 µM | HCC 2998 > 50.4 µM | CAKI-1 > 100 µM | SK-MEL-5 6.3 µM | SF-268 10.5 µM | EKVX 16.9 µM | KM12 5.09 µM | OVCAR-5 > 100 µM | NCI-H23 4.24 µM | HCT-116 5.45 µM | K562 4.27 µM | HL-60 3.32 µM | SF-295 6 µM | CCRF-CEM 4.13 µM | A498 25.9 µM | SNB-75 21.2 µM

CN(C)CN(C)c1nc(N(C)C)nc(N(C)C)n1
inactive: IGROV-1 > 100 µM | A549 > 100 µM | MOLT-4 > 100 µM | HCC 2998 > 100 µM | CAKI-1 > 100 µM | SK-MEL-5 > 100 µM | SF-268 > 100 µM | EKVX > 100 µM | KM12 > 100 µM | OVCAR-5 > 100 µM | NCI-H23 > 100 µM | HCT-116 > 100 µM | K562 > 100 µM | HL-60 > 100 µM | SF-295 > 100 µM | CCRF-CEM > 100 µM | A498 > 100 µM | SNB-75 > 100 µM

CNc1ncnc2c1ncn2C1C=CC(COS(N)(=O)=O)C1 (stereo unspecified)
inactive: IGROV-1 > 100 µM | A549 > 100 µM | MOLT-4 > 100 µM | HCC 2998 > 100 µM | CAKI-1 > 100 µM | SK-MEL-5 > 100 µM | SF-268 > 100 µM | EKVX > 100 µM | KM12 > 100 µM | PC-3 > 100 µM | NCI-H23 > 100 µM | HCT-116 > 100 µM | K562 > 100 µM | HL-60 > 100 µM | SF-295 > 100 µM | CCRF-CEM > 100 µM | A498 > 100 µM | SNB-75 > 100 µM

CN(c1c(Cl)cccc1Cl)S(=O)(=O)c1ccccc1[N+](=O)[O-]
inactive: IGROV-1 > 100 µM | A549 > 100 µM | MOLT-4 > 100 µM | HCC 2998 > 100 µM | CAKI-1 > 100 µM | SF-268 > 100 µM | EKVX > 100 µM | KM12 > 100 µM | PC-3 > 100 µM | OVCAR-5 > 100 µM | NCI-H23 > 100 µM | HCT-116 > 100 µM | HL-60 > 10 µM | SF-295 > 100 µM | SNB-75 > 100 µM

Cc1cc(C)c(/C=N/NS(=O)(=O)c2ccccc2)c(C)c1
inactive: IGROV-1 > 100 µM | A549 > 100 µM | MOLT-4 44.7 µM | HCC 2998 > 100 µM | CAKI-1 76.6 µM | SK-MEL-5 > 100 µM | SF-268 > 100 µM | EKVX 62.7 µM | KM12 > 100 µM | OVCAR-5 > 100 µM | NCI-H23 54.3 µM | HCT-116 > 100 µM | K562 94.4 µM | HL-60 91.6 µM | SF-295 38.5 µM | CCRF-CEM 62.8 µM | A498 56.1 µM | SNB-75 > 100 µM

Cc1n[n+](Cc2ccccc2)c2sc(N)nn12
inactive: IGROV-1 > 100 µM | A549 > 100 µM | MOLT-4 58.9 µM | CAKI-1 > 100 µM | SK-MEL-5 39.4 µM | SF-268 35.3 µM | EKVX > 100 µM | KM12 > 100 µM | PC-3 > 100 µM | OVCAR-5 > 100 µM | NCI-H23 > 100 µM | HCT-116 76.4 µM | K562 76.7 µM | SF-295 > 100 µM | CCRF-CEM 32 µM | A498 > 100 µM | SNB-75 > 100 µM

COc1ccc(C2Oc3cc(OC)c(O)c(C)c3[C@H]2C)cc1 (stereo partly specified)
inactive: IGROV-1 > 100 µM | A549 > 100 µM | MOLT-4 33.3 µM | HCC 2998 > 100 µM | CAKI-1 > 100 µM | SK-MEL-5 62.7 µM | SF-268 41.4 µM | EKVX 26.6 µM | KM12 > 100 µM | OVCAR-5 > 100 µM | NCI-H23 57.3 µM | HCT-116 35.6 µM | K562 61.2 µM | HL-60 18.2 µM | SF-295 > 100 µM | CCRF-CEM 36.2 µM | A498 79.4 µM | SNB-75 7.87 µM
